Molecular target: RAC-alpha serine/threonine-protein kinase (Homo sapiens, UniProt P31749)
Test: Inhibition of pAkt

Chain of RAC-alpha serine/threonine-protein kinase (P31749 whole entry): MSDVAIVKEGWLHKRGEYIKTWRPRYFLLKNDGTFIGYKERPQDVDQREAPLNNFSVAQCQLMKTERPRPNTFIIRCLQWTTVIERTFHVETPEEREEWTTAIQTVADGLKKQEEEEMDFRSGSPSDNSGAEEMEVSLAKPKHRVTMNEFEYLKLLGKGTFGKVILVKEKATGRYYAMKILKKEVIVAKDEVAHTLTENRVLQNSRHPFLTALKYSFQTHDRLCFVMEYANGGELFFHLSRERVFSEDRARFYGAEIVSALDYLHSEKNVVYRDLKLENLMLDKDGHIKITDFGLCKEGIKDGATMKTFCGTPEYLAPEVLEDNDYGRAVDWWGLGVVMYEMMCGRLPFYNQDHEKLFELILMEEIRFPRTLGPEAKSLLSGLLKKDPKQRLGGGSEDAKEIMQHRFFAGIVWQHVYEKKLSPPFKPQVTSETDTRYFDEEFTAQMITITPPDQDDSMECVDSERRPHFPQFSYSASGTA

Row | Structure (SMILES) | IC50
1 | CNC(=O)Nc1ccc(CNc2c(C(=O)Nc3ccc(SC(F)(F)F)cc3)cnn2C)cn1 [1-methyl-3-(5-((1-methyl-4-((4-(trifluoromethylthio)phenyl)carbamoyl)-1H-pyrazol-5-ylamino)methyl)pyridin-2-yl)urea] | 15 nM
2 | CNC(=O)Nc1ccc(CNc2ncsc2C(=O)Nc2ccc3c(c2)OC(F)(F)O3)cn1 [1-(5-((5-((2,2-difluorobenzo[d][1,3]dioxol-5-yl)carbamoyl)thiazol-4-ylamino)methyl)pyridin-2-yl)-3-methylurea] | 24 nM
3 | CCNC(=O)Nc1ccc(CNc2ncsc2C(=O)Nc2ccc3c(c2)OC(F)(F)O3)cn1 [1-(5-((5-((2,2-difluorobenzo[d][1,3]dioxol-5-yl)carbamoyl)thiazol-4-ylamino)methyl)pyridin-2-yl)-3-ethylurea] | 81 nM
